Data taken from patent US20260125378A2, “Heterocyclic Compounds” (BeOne Medicines I GmbH, priority 2023, published 2026).
pIC50: −log10 of the molar value.

Key:
[1] = target: T1, Full length DGKζ (in-house protein M1-V929) (Homo sapiens, UniProt Q13574); assay: Biochemical DGK IC50 assay (ADP-Glo, lipid micelle substrate), DGKζ; conditions: 1 hour preincubation, 1 hour reaction, room temperature
T1 construct: His (N); TEV site (N); made in house; host or cells: Sf9 insect cells (Bac-to-Bac baculovirus)
Experimental: (§1) Enzymatic reactions of DGKζ, DGKα and DGKδ were performed using ADP-Glo assay with lipid micelle substrate. […] Full length DGKα (D21-10BG, SignalChem) and full length DGKδ (D23-10G, SignalChem) were purchased. Lipid micelle was prepared by dissolving DAG (Sigma, 317505-10 MG) and PS (Sigma, P7769-100 MG) with chloroform which was furtherly removed by rotary evaporation. The obtained residue was resuspended in buffer containing 25 mM HEPES pH 7.0, 0.5 mM EDTA and 160 mM Octyl β-D glucopyranoside by vigorous mixing and ultrasonic (IID, Scientz).
(§2) The inhibition activities testing for the compound disclosed herein were carried out at room temperature in assay buffer containing 50 mM HEPES, 10 mM MgCl2, 0.01% BSA, 0.1 mM Na3VO4, 0.005% Tween-20 and 0.01 mM CaCl2). Compounds in DMSO were dispensed into wells of a black 384 well plate (Corning 4514) using D300e digital dispenser (Tecan). […] 3 μL 2× enzyme solution was added to wells. […] After 1 hour reaction, 5 μL ADP-Glo reagent (Promga V9101) was added and incubated for 40 minutes. 10 μL Kinase Detection reagent was added and incubated for 30 minutes. Luminescence was measured on a microplate reader (PHERAstar FSX, BMG labtech). The IC50S are calculated based on inhibition of enzyme activity in the presence of increasing concentrations of compounds.
Human His-TEV-DGK-zeta-pFastBac1 and human baculovirus samples was generated using the Bac- to -Bac baculovirus expression system (Invitrogen) according to the manufacturer's protocol. The DNA used for expression of DGK-zeta, have SEQ ID Nos: 1. Baculovirus amplification was achieved using infected SF9 cells at 1:2000 virus/cells ratios, and grown for 96 hours at 27° C. post-transfected.
The expression scaled up for each protein was carried out in the […] from CORNING. 4 L of 3×10^6 cells/mL Sf9 cells (Expression System, Invitrogen) grown in SF900™ II SFM insect medium (Expression System) was infected with virus stock at 1:200 virus/cells ratio, and grown for 48 hours at 27° C. post-transfection. The infected cell culture was harvested by centrifugation at 6000 rpm for 15 min 4° C. in a SORVALL LYNX6000 centrifuge. The cell pellets were stored at −80° C.
Full length human DGKζ produced as described above, was purified from Sf9 baculovirus-infected insect cell paste. The cells were lysed using sonication method, and the lysates were clarified by centrifugation.

[2] = target: T2, Full length DGKα (D21-10BG, SignalChem) (Homo sapiens, UniProt P23743); assay: Biochemical DGK IC50 assay (ADP-Glo, lipid micelle substrate), DGKα; conditions: 1 hour preincubation, 1 hour reaction, room temperature
T2 construct: Full length DGKα (D21-10BG, SignalChem); purchased SignalChem D21-10BG
Experimental: as §1, §2

T1 sequence (Q13574 1-929 isoform Q13574-4): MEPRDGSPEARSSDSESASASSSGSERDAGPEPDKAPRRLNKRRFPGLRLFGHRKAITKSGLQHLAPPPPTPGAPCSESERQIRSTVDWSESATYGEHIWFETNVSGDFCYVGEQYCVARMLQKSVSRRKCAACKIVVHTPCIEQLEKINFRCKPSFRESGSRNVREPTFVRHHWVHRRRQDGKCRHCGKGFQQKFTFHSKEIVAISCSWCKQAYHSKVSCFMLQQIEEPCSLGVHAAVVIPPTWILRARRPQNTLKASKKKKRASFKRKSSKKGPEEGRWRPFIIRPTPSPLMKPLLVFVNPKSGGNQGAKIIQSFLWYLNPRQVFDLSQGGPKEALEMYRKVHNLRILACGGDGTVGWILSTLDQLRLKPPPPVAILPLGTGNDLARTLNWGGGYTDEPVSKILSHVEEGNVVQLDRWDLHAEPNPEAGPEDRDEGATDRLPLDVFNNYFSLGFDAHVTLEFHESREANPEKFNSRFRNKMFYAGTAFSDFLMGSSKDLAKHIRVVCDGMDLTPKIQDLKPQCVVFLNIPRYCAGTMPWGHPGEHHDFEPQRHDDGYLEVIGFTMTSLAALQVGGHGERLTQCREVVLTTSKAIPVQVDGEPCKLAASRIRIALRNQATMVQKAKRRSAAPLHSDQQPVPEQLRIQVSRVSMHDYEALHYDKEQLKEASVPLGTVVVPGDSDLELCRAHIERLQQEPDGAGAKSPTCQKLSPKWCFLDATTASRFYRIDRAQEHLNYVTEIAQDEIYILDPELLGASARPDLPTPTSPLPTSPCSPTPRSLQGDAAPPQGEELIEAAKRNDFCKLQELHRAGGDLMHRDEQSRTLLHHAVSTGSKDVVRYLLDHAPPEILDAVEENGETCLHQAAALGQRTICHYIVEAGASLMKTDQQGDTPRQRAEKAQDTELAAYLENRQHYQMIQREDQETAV
T2 sequence (P23743 whole entry): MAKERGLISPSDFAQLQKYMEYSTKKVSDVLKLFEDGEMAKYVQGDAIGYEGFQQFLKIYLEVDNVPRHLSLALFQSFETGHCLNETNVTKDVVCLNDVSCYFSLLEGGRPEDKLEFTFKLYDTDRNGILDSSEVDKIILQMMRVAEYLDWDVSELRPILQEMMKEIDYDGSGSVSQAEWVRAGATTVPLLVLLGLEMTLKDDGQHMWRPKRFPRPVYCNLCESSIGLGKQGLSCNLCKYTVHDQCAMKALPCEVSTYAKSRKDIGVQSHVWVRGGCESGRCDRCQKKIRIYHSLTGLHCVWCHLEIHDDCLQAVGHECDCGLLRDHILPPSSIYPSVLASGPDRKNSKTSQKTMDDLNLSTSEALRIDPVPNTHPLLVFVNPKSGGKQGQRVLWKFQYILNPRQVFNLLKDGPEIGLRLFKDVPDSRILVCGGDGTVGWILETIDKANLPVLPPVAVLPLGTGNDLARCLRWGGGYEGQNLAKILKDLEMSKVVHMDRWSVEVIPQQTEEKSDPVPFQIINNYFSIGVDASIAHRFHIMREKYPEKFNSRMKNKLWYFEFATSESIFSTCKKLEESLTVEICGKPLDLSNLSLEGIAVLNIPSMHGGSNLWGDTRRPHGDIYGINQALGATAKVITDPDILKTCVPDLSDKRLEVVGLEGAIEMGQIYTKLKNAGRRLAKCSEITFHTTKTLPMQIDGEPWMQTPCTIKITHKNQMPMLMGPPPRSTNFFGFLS

SMILES | pIC50 [1] | pIC50 [2]
CCn1c(CC#N)nc2c(N3C[C@@H](C)N(C(C)c4ccnc(-c5ccccc5)c4)C[C@@H]3C)nc(=O)n(C)c21 (stereo partly drawn) [Compound A144, 2-(6-((2S,5R)-2,5-dimethyl-4-(1-(2-phenylpyridin-4-yl)ethyl)piperazin-1-yl)-9-ethyl-3-methyl-2-oxo-3,9-dihydro-2H-purin-8-yl)acetonitrile] | 7.22 | 4.13
CCn1c(CC#N)nc2c(N3C[C@@H](C)N(C(C)c4cccc(C(F)(F)F)n4)C[C@@H]3C)nc(=O)n(C)c21 (single isomer, unassigned) [Compound A118b] | 6.99 | 4.18
CC(c1cc(F)c2c(c1)OC(C)(C)CO2)N1C[C@H](C)N(c2nc(=O)n(C)c3c2nc(CC#N)n3C)C[C@H]1C (single isomer, unassigned) [Compound A68b] | 6.70 | 4.14
CCn1c(CC#N)nc2c(N3C[C@@H](C)N(C(C)c4cc5c(cc4Cl)OCC(C)(C)O5)C[C@@H]3C)nc(=O)n(C)c21 (stereo partly drawn) [Compound A73, 2-(6-((2S,5R)-4-(1-(7-chloro-3,3-dimethyl-2,3-dihydrobenzo[b][1,4]dioxin-6-yl)ethyl)-2,5-dimethylpiperazin-1-yl)-9-ethyl-3-methyl-2-oxo-3,9-dihydro-2H-purin-8-yl)acetonitrile] | 6.19 | < 3.82
CCn1c(CC#N)nc2c(N3C[C@@H](C)N(C(C)c4ccnc5c4OCCC5(F)F)C[C@@H]3C)nc(=O)n(C)c21 (single isomer, unassigned) [Compound A103b] | 7.28 | < 3.82
Cc1cnc2ccc(C(C)N3C[C@H](C)N(c4c(F)c(=O)n(C)c5c4nc(CC#N)n5C)C[C@H]3C)cc2n1 (single isomer, unassigned) [Compound A23a] | 8.10 | 4.20
CCn1c(CC#N)nc2c(N3C[C@@H](C)N(C(C)c4ccc5c(c4)C(=O)N(C)CO5)C[C@@H]3C)nc(=O)n(C)c21 (stereo partly drawn) [Compound A192, 2-(6-((2S,5R)-2,5-dimethyl-4-(1-(3-methyl-4-oxo-3,4-dihydro-2H-benzo[e][1,3]oxazin-6-yl)ethyl)piperazin-1-yl)-9-ethyl-3-methyl-2-oxo-3,9-dihydro-2H-purin-8-yl)acetonitrile] | 6.92 | < 3.82
CCn1c(CC#N)nc2c(N3C[C@@H](C)N(C(C)c4ccc(F)cc4C(F)(F)F)C[C@@H]3C)nc(=O)n(C)c21 (single isomer, unassigned) [Compound A35a] | 5.56 | < 3.82
COC[C@H]1CN(C(C)c2ccc3ncc(C)nc3c2)[C@H](C)CN1c1nc(=O)n(C)c2c1nc(CC#N)n2C (single isomer, unassigned) [Compound A13b] | 7.27 | < 3.82
CCn1c(CC#N)nc2c(N3C[C@@H](C)N(C(C)c4ccc(C)cc4C(F)(F)F)C[C@@H]3C)nc(=O)n(C)c21 (single isomer, unassigned) [Compound A116a] | 5.11 | < 3.82
CCn1c(CC#N)nc2c(N3C[C@@H](C)N(C(C)c4ccc5c(=O)cc(C)n(C)c5c4)C[C@@H]3C)nc(=O)n(C)c21 (stereo partly drawn) [Compound A155, 2-(6-((2S,5R)-4-(1-(1,2-dimethyl-4-oxo-1,4-dihydroquinolin-7-yl)ethyl)-2,5-dimethylpiperazin-1-yl)-9-ethyl-3-methyl-2-oxo-3,9-dihydro-2H-purin-8-yl)acetonitrile] | 5.92 | 4.00
CC[C@H]1CN(C(C)c2ccc(C(F)(F)F)cc2)[C@H](CC)CN1c1nc(=O)n(C)c2c1nc(CC#N)n2C (single isomer, unassigned) [Compound A149b] | 7.82 | 6.51
CCn1c(CC#N)nc2c(N3C[C@@H](C)N(C(C)c4ccc5c(c4F)OC(C)(C)O5)C[C@@H]3C)nc(=O)n(C)c21 (stereo partly drawn) [Compound A175, 2-(9-ethyl-6-((2S,5R)-4-(1-(4-fluoro-2,2-dimethylbenzo[d][1,3]dioxol-5-yl)ethyl)-2,5-dimethylpiperazin-1-yl)-3-methyl-2-oxo-3,9-dihydro-2H-purin-8-yl)acetonitrile] | 8.30 | 4.65
